The text below walks through data of patent US9943504B2, “Arginine methyltransferase inhibitors and uses thereof” (Epizyme, Inc., priority 2013, dated 2018).

The test concerns the target T1, human PRMT8 (Homo sapiens, UniProt Q9NR22).
T1 construct: Full-length human PRMT8 (NM_019854.4) isoform 1 transcript clone; made in house; host or cells: E. coli BL21(DE3) Gold
Kind of test: PRMT8 Biochemical Assay. As to conditions: biochemical evaluation, peptide substrate. An excerpt:
S-adenosylmethionine (SAM), S-adenosylhomocysteine (SAH), bicine, Tween20, dimethylsulfoxide (DMSO), bovine skin gelatin (BSG), isopropyl-β-D-thiogalactopyranoside (IPTG), and Tris(2-carboxyethyl)phosphine hydrochloride solution (TCEP) were purchased from Sigma-Aldrich at the highest level of purity possible. ^3H-SAM was purchase from American Radiolabeled Chemicals with a specific activity of 80 Ci/mmol. 384-well streptavidin Flashplates were purchased from PerkinElmer.
Peptide representative of human histone H4 residues 31-45 was synthesized with an N-terminal linker-affinity tag motif and a C-terminal amide cap by 21st Century Biochemicals. The peptide was purified by high-performance liquid chromatography (HPLC) to greater than 95% purity and confirmed by liquid chromatography mass spectrometry (LC-MS). The sequence was Biot-Ahx-[…]-amide (SEQ ID NO.: 8).
The resulting construct encodes an N-terminal GST tag and a thrombin cleavage sequence ([…] […]
The assays were all performed in a buffer consisting of 20 mM Bicine (pH=7.6), 1 mM TCEP, 0.005% BSG, and 0.002% Tween 20, prepared on the day of use. […] The plates were then read in a PerkinElmer TopCount plate reader to measure the quantity of ^3H-labeled peptide bound to the Flashplate surface, measured as disintegrations per minute (dpm) or alternatively, referred to as counts per minute (cpm). […]

Molecules are shown by their SMILES. pIC50: −log10 of the molar value.

T1 sequence (Q9NR22 whole entry, canonical isoform): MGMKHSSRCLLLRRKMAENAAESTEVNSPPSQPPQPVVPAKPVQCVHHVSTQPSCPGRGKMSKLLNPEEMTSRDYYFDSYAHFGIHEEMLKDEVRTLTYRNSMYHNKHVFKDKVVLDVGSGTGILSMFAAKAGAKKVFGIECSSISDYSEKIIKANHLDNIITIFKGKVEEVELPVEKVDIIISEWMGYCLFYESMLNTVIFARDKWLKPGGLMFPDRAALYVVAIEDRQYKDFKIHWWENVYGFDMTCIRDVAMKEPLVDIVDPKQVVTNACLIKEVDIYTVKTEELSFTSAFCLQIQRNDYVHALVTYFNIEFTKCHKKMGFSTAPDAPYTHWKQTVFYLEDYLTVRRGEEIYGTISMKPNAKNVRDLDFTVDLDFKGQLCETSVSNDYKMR

In general, pIC50 refers to −log10 of the IC50, conventionally taken in molar units. A higher pIC50 goes with a low IC50. In the case of `CN(CCN)Cc1n[nH]c2cccc(OCc3ccccc3)c12` [Compound 1], the negative-log IC50 (pIC50) was 6.00 to 7.00.
